Data published in patent US20250152564A1, “PROPYLENE KETONE-CONTAINING BIOINHIBITOR, PREPARATION METHOD THEREFOR, AND USE THEREOF” (SHANGHAI HANSOH BIOMEDICAL CO., LTD., priority 2022, published 2025).

Tests used:
FGFR2 = FGFR2 (Homo sapiens (Human), UniProt P21802); assay: TR-FRET kinase inhibition assay, FGFR2; format: biochemical; conditions: ATP Km concentration (30 μM)
Description: (§1) To measure the IC50 values of the compounds against FGFR1, FGFR2, FGFR3, FGFR4, and FGFR2 V564F at ATP Km concentrations by TR-FRET method.
(§2) TR-FRET (time-resolved fluorescence resonance energy transfer) method was used to detect the inhibitory activity of the compounds on FGFR1, FGFR2, FGFR3, FGFR4, and FGFR2 V564F kinase region fragments. The highest detection concentration of the compounds in 5 kinase experiments was 1000 nM, which was diluted in 3 folds, with a total of 11 concentrations (1000 nM to 0.017 nM). A kinase buffer (50 mM HEPES pH 7.5, 1 mM EGTA, 10 mM MgCl2, 2 mM DTT, and 0.01% Tween-20) was used to prepare 4× enzyme solution, 4× compound solutions diluted in gradient, and a 2×ATP/Peptide substrate solution. To a 384-well plate, 2.5 μL of enzyme solution and 2.5 μL of diluted […] compound solution were added, and 5 μL of 2×ATP/Peptide substrate solution was then added. After reacting at room temperature for 60 minutes for FGFR1, FGFR2, FGFR3, and FGFR2 V564F kinases, and 120 minutes for FGFR4 kinase, 10 μL of a 2× termination and detection mixed liquid prepared with 1×LANCE detection buffer with an EDTA concentration of 20 mM and a Europium-anti-phosphotyrosine (PT66) concentration of 2 nM was added to each well of the plate. After reacting at room temperature for 60 minutes for FGFR1, FGFR2, FGFR3, and FGFR4, and 30 minutes for FGFR2 V564F, the fluorescence signal value in each well of the plate was measured by a microplate reader.
(§3) 1) Inhibition rate (%): Calculation was performed on the raw data (665 nm/620 nm reading ratio) according to the following formula to obtain the inhibition rate. Inhibition rate %=[(mean value in positive control well−value in sample well)/(mean value in positive control well−mean value in negative control well)]×100, wherein the positive control well was a reaction well without a compound […], and the negative control well was a reaction wells without an enzyme.
(§4) 2) Curve fitting: Log(inhibitor) vs. response—Variable slope (four parameters) in GraphPad Prism 6 was used for fitting equation analysis of the compound concentration and the corresponding inhibition rate, and the curve was fitted to obtain the IC50 values of the compounds.

FGFR2 V564F = FGFR2 V564F (Homo sapiens (Human), UniProt P21802, V564F); assay: TR-FRET kinase inhibition assay, FGFR2 V564F; format: biochemical; conditions: ATP Km concentration (20 μM)
Description: as §1, §2, §3, §4

FGFR1 = FGFR1 (Homo sapiens (Human), UniProt P11362); assay: TR-FRET kinase inhibition assay, FGFR1; format: biochemical; conditions: ATP Km concentration (30 μM)
Description: as §1, §2, §3, §4

[1] = tested on: BaF3 FGFR2-BICC1 V564F cells; assay: CellTiter-Glo cell proliferation inhibition, BaF3 FGFR2-BICC1 V564F; format: cell-based; conditions: Mus musculus, 72 h, read-out: BaF3 FGFR2-BICC1 V564F inhibitory activity IC50
Description: (§5) To evaluate inhibitory effects of the compounds on the proliferation of NCI-H716, SNU-16 and BaF3-FGFR2-BICC1 V564F cells by cell proliferation inhibition experiments.
(§6) CellTiter-Glo method was used to detect inhibitory effects of the compounds on the proliferation of NCI-H716, SNU-16 and BaF3 FGFR2-BICC1 V564F cells. The highest detection concentration of the compounds was 1000 nM, which was diluted in 3 folds, with a total of 9 concentrations (1000 nM to 0.15 nM). After the cells were plated at an appropriate density, compounds were added the next day and incubated for 72 h before detection using the […] detection kit.
as §3, with “(%):” for “(%): Calculation was performed on the raw data (665 nm/620 nm reading ratio) according to the following formula to obtain the inhibition rate.”
as §4

NCI-H716 cells = assay: CellTiter-Glo cell proliferation inhibition, NCI-H716; format: cell-based; conditions: Homo sapiens, 72 h, read-out: NCI-H716 cell proliferation inhibition rate IC50
Description: as §5, §6
as §3, with “(%):” for “(%): Calculation was performed on the raw data (665 nm/620 nm reading ratio) according to the following formula to obtain the inhibition rate.”
as §4

[2] = Pharmacokinetic experiment in SD rats after oral administration; format: in vivo; conditions: 5 mg/kg, plasma
Description: To study the pharmacokinetic behavior of the compounds of the present invention in the rat body (plasma) after oral administration at a dose of 5 mg/kg using SD rats as test animals.
3 SD rats/group, male, from Shanghai Jiesijie Experimental Animal Co., Ltd., animal production license number (SCXK (Shanghai) 2013-0006 N0.311620400001794).
PO, 10% solutol HS15-0.5% CMC-Na was dissolved by ultrasound and prepared into a clear solution or homogeneous suspension.
3 SD rats/group, male; p.o. respectively at a dose of 5 mg/kg and an administration volume of 10 mL/kg after the […] were fasted overnight.
After oral administration to rats, at 0.25, 0.5, 1, 2, 4, 6, 8 and 24 hours, 0.2 mL of blood was collected from the jugular vein, placed in an EDTA-K2 test tube, centrifuged at 6000 rpm for 6 min at 4° C. to separate the plasma, which was stored at −80° C.
1) 100 μL of acetonitrile was added to 20 μL of plasma sample for pelleting, and it was mixed and centrifuged at 3500×g for 5-20 min.
2) The treated supernatant solution was taken and subjected to LC/MS/MS to analyze the concentrations of the test compounds. LC/MS/MS analysis instrument: AB Sciex API 4000 Qtrap.
• Liquid phase conditions: Shimadzu LC-20AD pump • Chromatographic column: Waters Xbridge C18 5 μm, 4.6×50 mm mobile phase: liquid A was 0.1% aqueous formic acid solution, and liquid B was methanol • Flow rate: 1.0 mL/min • Elution time: 0-4.0 min, the eluent was as follows: […]

Sequence of FGFR2 (P21802 481-770): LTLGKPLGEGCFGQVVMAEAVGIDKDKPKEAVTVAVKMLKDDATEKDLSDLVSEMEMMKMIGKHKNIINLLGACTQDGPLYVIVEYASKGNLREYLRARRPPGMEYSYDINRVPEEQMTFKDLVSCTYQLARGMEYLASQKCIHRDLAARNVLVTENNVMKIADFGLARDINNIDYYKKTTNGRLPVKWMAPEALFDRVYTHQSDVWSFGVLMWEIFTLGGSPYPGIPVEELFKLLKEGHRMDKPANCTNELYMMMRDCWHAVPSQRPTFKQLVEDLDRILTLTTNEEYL
Sequence of FGFR2 V564F (P21802 481-770 V564F): as the sequence (P21802 481-770) above, with V84F counted along it
Sequence of FGFR1 (P11362 478-767): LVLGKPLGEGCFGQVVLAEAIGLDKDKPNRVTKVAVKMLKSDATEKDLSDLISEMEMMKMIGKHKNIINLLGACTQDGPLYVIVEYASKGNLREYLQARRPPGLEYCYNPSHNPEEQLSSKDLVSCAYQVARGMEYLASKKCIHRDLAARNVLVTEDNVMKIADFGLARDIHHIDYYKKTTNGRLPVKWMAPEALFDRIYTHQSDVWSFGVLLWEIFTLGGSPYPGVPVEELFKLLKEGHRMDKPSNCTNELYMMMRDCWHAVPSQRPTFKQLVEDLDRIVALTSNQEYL

| Compound | IC50 (FGFR2) | IC50 (FGFR2 V564F) | IC50 (FGFR1) | IC50 [1] | IC50 (NCI-H716 cells) | AUC(0-t) ([2]; male, Sprague-Dawley (SD), rat, po, read-out: Area under the curve AUC0-t) | AUC(0-inf) ([2]; male, Sprague-Dawley (SD), rat, po, read-out: Area under the curve AUC0-∞) | half-life ([2]; male, Sprague-Dawley (SD), rat, po, read-out: Half-life t1/2 (converted)) | MRT ([2]; male, Sprague-Dawley (SD), rat, po, read-out: Mean residence time MRT) | Cmax ([2]; male, Sprague-Dawley (SD), rat, po, read-out: Plasma concentration Cmax) | Time to peak tmax ([2]; p.o.) |
| --- | --- | --- | --- | --- | --- | --- | --- | --- | --- | --- | --- |
| C=CC(=O)N1CC[C@H](n2nc(C#Cc3ccc4c(c3)ncn4C)c3c(N)ncc(C(=O)C(C)C)c32)C1 [Example 66] | 2.9 nM | 0.8 nM | 6.8 nM | 2.8 nM |  |  |  |  |  |  |  |
| C=CC(=O)N1CC[C@H](n2nc(C#Cc3cc4ncn(C)c4cc3F)c3c(N)ncc(C)c32)C1 [Example 18, (S)-1-(3-(4-amino-3-((6-fluoro-1-methyl-1H-benzo[d]imidazol-5-yl)ethynyl)-7-methyl-1H-pyrazolo[4,3-c]pyridin-1-yl)pyrrolidin-1-yl)prop-2-en-1-one] |  |  |  |  | 1.82 nM |  |  |  |  |  |  |
| C=CC(=O)N1CC[C@H](n2nc(C#Cc3cc4nc(C)n(C5CC5)c4cc3F)c3c(N)ncc(C(C)=O)c32)C1 [Example 55, (S)-1-(3-(7-acetyl-4-amino-3-((1-cyclopropyl-6-fluoro-2-methyl-1H-benzo[d]imidazol-5-yl)ethynyl)-1H-pyrazolo[4,3-c]pyridin-1-yl)pyrrolidin-1-yl)prop-2-en-1-one] | 2.8 nM | 1 nM | 4.4 nM | 2.2 nM |  |  |  |  |  |  |  |
| C=CC(=O)N1CC[C@H](n2nc(C#Cc3c(F)cc4c(ncn4C)c3F)c3c(N)ncc(C(C)=O)c32)C1 [Example 31, (S)-1-(3-(7-acetyl-4-amino-3-((4,6-difluoro-1-methyl-1H-benzo[d]imidazol-5-yl)ethynyl)-1H-pyrazolo[4,3-c]pyridin-1-yl)pyrrolidin-1-yl)prop-2-en-1-one] | 1.2 nM | 0.8 nM | 3.5 nM | 1.4 nM |  |  |  |  |  |  |  |
| C=CC(=O)N1CC[C@H](n2nc(C#Cc3cc4ncn(CC)c4cc3F)c3c(N)ncc(-c4nccs4)c32)C1 [Example 22, (S)-1-(3-(4-amino-3-((1-ethyl-6-fluoro-1H-benzo[d]imidazol-5-yl)ethynyl)-7-(thiazol-2-yl)-1H-pyrazolo[4,3-c]pyridin-1-yl)pyrrolidin-1-yl)prop-2-en-1-one] | 1.6 nM | 0.8 nM | 6.5 nM |  |  |  |  |  |  |  |  |
| [2H]C([2H])([2H])n1cnc2cc(C#Cc3nn([C@H]4CCN(C(=O)C=C)C4)c4c(-c5nccs5)cnc(N)c34)c(F)cc21 [Example 25, (S)-1-(3-(4-amino-3-((6-fluoro-1-(methyl-d3)-1Hbenzo[d]imidazol-5-yl)ethynyl)-7-(thiazol-2-yl)-1Hpyrazolo[4,3-c]pyridin-1-yl)pyrrolidin-1-yl)prop-2-en-1-one] | 1.5 nM | 0.6 nM | 5.7 nM |  |  |  |  |  |  |  |  |
| C=CC(=O)N1CC[C@H](n2nc(C#Cc3cc4ncn(C5CC5)c4cc3Cl)c3c(N)ncc(C(C)=O)c32)C1 [Example 44, (S)-1-(3-(7-acetyl-4-amino-3-((6-chloro-1-cyclopropyl-1H-benzo[d]imidazol-5-yl)ethynyl)-1H-pyrazolo[4,3-c]pyridin-1-yl)pyrrolidin-1-yl)prop-2-en-1-one] | 2.2 nM | 0.4 nM | 4.4 nM | 0.8 nM |  |  |  |  |  |  |  |
| C=CC(=O)N1CC[C@H](n2nc(C#Cc3ccc4c(c3)ncn4C3CC3)c3c(N)ncc(C(=O)CC)c32)C1 [Example 39, (S)-1-(3-(4-amino-3-((1-cyclopropyl-1H-benzo[d]imidazol-5-yl)ethynyl)-7-propionyl-1H-pyrazolo[4,3-c]pyridin-1-yl)pyrrolidin-1-yl)prop-2-en-1-one] | 1.7 nM | 0.6 nM | 6.1 nM | 2.2 nM |  | 4190 ng·h/mL | 4240 ng·h/mL | 1 h | 2.63 h | 1250 ng/mL | 2 h |

Further compounds by falling IC50 (FGFR2), results first:

| IC50 (FGFR2) | IC50 (FGFR2 V564F) | IC50 (FGFR1) | IC50 [1] | IC50 (NCI-H716 cells) | AUC(0-t) ([2]; male, Sprague-Dawley (SD), rat, po, read-out: Area under the curve AUC0-t) | AUC(0-inf) ([2]; male, Sprague-Dawley (SD), rat, po, read-out: Area under the curve AUC0-∞) | half-life ([2]; male, Sprague-Dawley (SD), rat, po, read-out: Half-life t1/2 (converted)) | MRT ([2]; male, Sprague-Dawley (SD), rat, po, read-out: Mean residence time MRT) | Cmax ([2]; male, Sprague-Dawley (SD), rat, po, read-out: Plasma concentration Cmax) | Time to peak tmax ([2]; p.o.) | Compound |
| --- | --- | --- | --- | --- | --- | --- | --- | --- | --- | --- | --- |
| 3.5 nM | 1.1 nM | 5.2 nM | 0.2 nM |  |  |  |  |  |  |  | C=CC(=O)N1CC[C@H](n2nc(C#Cc3cc4ncn(C5CC5)c4cc3Cl)c3c(N)ncc(C(=O)C4CC4)c32)C1 [Example 46, (S)-1-(3-(4-amino-3-((6-chloro-1-cyclopropyl-1H-benzo[d]imidazol-5-yl)ethynyl)-7-(cyclopropanecarbonyl)-1H-pyrazolo[4,3-c]pyridin-1-yl)pyrrolidin-1-yl)prop-2-en-1-one] |
| 3.4 nM | 0.9 nM | 5.5 nM | 2.2 nM |  |  |  |  |  |  |  | C=CC(=O)N1CC[C@H](n2nc(C#Cc3cc4nc(C)n(C5CC5)c4cc3Cl)c3c(N)ncc(C(C)=O)c32)C1 [Example 54, (S)-1-(3-(7-acetyl-4-amino-3-((6-chloro-1-cyclopropyl-2-methyl-1H-benzo[d]imidazol-5-yl)ethynyl)-1H-pyrazolo[4,3-c]pyridin-1-yl)pyrrolidin-1-yl)prop-2-en-1-one] |
| 3.2 nM | 2.2 nM | 6.6 nM | 2.9 nM |  |  |  |  |  |  |  | C=CC(=O)N1CC[C@H](n2nc(C#Cc3cc4ncn(C5CC5)c4cc3F)c3c(N)ncc(-c4nccs4)c32)C1 [Example 34, (S)-1-(3-(4-amino-3-((1-cyclopropyl-6-fluoro-1H-benzo[d]imidazol-5-yl)ethynyl)-7-(thiazol-2-yl)-1H-pyrazolo[4,3-c]pyridin-1-yl)pyrrolidin-1-yl)prop-2-en-1-one] |
| 1.3 nM | 0.5 nM | 5.6 nM | 2.5 nM |  |  |  |  |  |  |  | C=CC(=O)N1CC[C@H](n2nc(C#Cc3ccc4c(c3)ncn4CC)c3c(N)ncc(C(=O)CC)c32)C1 [Example 57, (S)-1-(3-(4-amino-3-((1-ethyl-1H-benzo[d]imidazol-5-yl)ethynyl)-7-propionyl-1H-pyrazolo[4,3-c]pyridin-1-yl)pyrrolidin-1-yl)prop-2-en-1-one] |
| 0.7 nM | 0.9 nM | 2.3 nM |  |  |  |  |  |  |  |  | C=CC(=O)N1CC[C@H](n2nc(C#Cc3ccc4ccnn4c3)c3c(N)ncc(C(=O)C4CC4)c32)C1 [Example 73, (S)-1-(3-(4-amino-7-(cyclopropanecarbonyl)-3-(pyrazolo[1,5-a]pyridine-6-ethynylene)-1H-pyrazolo[4,3-c]pyridin-1-yl)pyrrolidine-1-methyl)prop-2-en-1-one] |
